Values quoted from earlier work, collected in PMC10364322, “Evaluation of chronic drug-induced electrophysiological and cytotoxic effects using human-induced pluripotent stem cell-derived cardiomyocytes (hiPSC-CMs)” (Frontiers in Pharmacology, 2023).

Key:
cynomolgus monkeys = test system: cynomolgus monkeys; parameters: method as in Gill et al., 2017; settings: ref Gill et al., 2017; cited from earlier work
patients = test system: patients; parameters: method as in Wenningmann et al., 2019; settings: doses above 700 mg/m^2; ref Wenningmann et al., 2019; cited from earlier work
[1] = test system: human embryonic stem cell-derived cardiomyocytes; parameters: method as in Hihara et al., 2014; settings: 10 µM; 24 h-treatment; 4% in vehicle-treated wells; ref Hihara et al., 2014; cited from earlier work

Compound: COc1nc(N)nc2c1ncn2[C@@H]1O[C@H](COP(=O)(N[C@@H](C)C(=O)OCC(C)(C)C)Oc2cccc3ccccc23)[C@@H](O)[C@@]1(C)O (stereo partly drawn) [BMS-986094]
- estimated dose that caused cardiotoxicity (cynomolgus monkeys): 3 µM

Compound: COc1cccc2c1C(=O)c1c(O)c3c(c(O)c1C2=O)C[C@@](O)(C(=O)CO)C[C@@H]3O[C@H]1C[C@H](N)[C@H](O)[C@H](C)O1 [Doxorubicin]
- congestive heart failure, share of patients (patients): up to 48%

Compound: N=C(N)c1ccc(OCCCCCOc2ccc(C(=N)N)cc2)cc1 [Pentamidine]
- FPDc prolongation [1]: 62%
